In patent US20260335468A1, “MOLECULAR RADIOAFTERGLOW PROBES FOR CANCER RADIODYNAMIC THERANOSTICS” (NANYANG TECHNOLOGICAL UNIVERSITY, priority 2023, published 2026):

What was measured:
[1] = ·OH and other ROS detection (HPF) upon X-ray irradiation; format: physicochemical
Method: To study other ROS generation, fluorescence sensors DHR123 (for O2·^− detection) and HPF (for ·OH detection) were used. For O2·^− detection, DHR123 (10 PM) was added to a solution of IDPASu (10 M) in PBS (0.01 M pH 7.4, 50% DMSO), followed by X-ray irradiation at different doses of 5 mGy (250 μGy s^−1 for 20 s) and 2 Gy (100 mGy s^1 for 20 s). The fluorescence changes in DHR123 were recorded at λex of 505 nm and λem of 534 nm. For ·OH detection, HPF ([…]) was added in a solution of IDPASu (10 M) in PBS (0.01 M, pH 7.4, 50% DMF), followed by X-ray irradiation at different doses, namely, 5 mGy (250 μGy s^−1 for 20 s) and 2 Gy (100 mGy s^−1 for 20 s). The fluorescence changes in HPF were collected at ex of 450 nm and λem of 515 nm. The ROS production was calculated by the corresponding standard curve.

[2] = Cell viability of U87 cells with IDPASu (Cell Counting Kit-8); format: cell-based, human; settings: human, u87 cells; 100 μM; read-out: cell viability without X-ray
Method: All the cells were purchased from the American Type Culture Collection, including CatB-negative cells (mouse embryonic fibroblasts 3T3 cells, RAW 264.7, 293-T and human monocytic THP-1 cells) and CatB-positive cells (human U87 glioblastoma cells, U87-luciferase cells, A549 lung epithelial cells and 4T1 and melanoma B16-F10). All the cells were cultured
in Dulbecco's modified Eagle medium (Gibco) or RPMI 1640 medium containing 10.0% foetal bovine serum (Gibco) and 0.1% ciprofloxacin in a humidified atmosphere containing 5.0% CO2 and 95.0% air at 37° C. To study the cell viability of IDPASu, U87 cells (1×10^4 per well) were seeded on 96-well plates and incubated for 24 h. IDPASu at different concentrations (0, 2.5, 5.0, 10.0, 25.0, 50.0 and 100.0 μM) were added to the U87 cell medium for 12 h incubation. After incubation, 96-well plates were covered with chicken breast tissues with different thicknesses (0, 5, 8 and 15 cm), followed by X-ray irradiation. The X-ray setup was optimized to ensure the cells in all the wells received similar dose of X-ray irradiation (2 Gy) before chicken breast tissue coverage (0 cm). After irradiation, the cells were further incubated for 12 h, followed by the colorimetric Cell Counting Kit-8 assay. Briefly, Cell Counting Kit-8 solution (10 l, Dojindo Molecular Technologies) was added into the cell medium (100 l) for 2 h incubation, and the absorbance of medium at 450 nm was recorded using a microplate reader (ReadMax 1900). The cells without IDPASu incubation and X-ray irradiation were set as control. The cell viability (%) was calculated by the absorbance of treated cells over that of the control cells. To test the cell viability of activatable MRAP, U87 and 3T3 cells (1×10^4 per well) were seeded on 96-well plates and incubated for 24 h. The inhibitor group was pre-treated with a CatB inhibitor (CA-074, 1 mM) for 10 h incubation. MRAP at different concentrations (0, 2.5, 5.0, 10.0, 25.0, 50.0 and 100.0 µM) were added to the U87 and 3T3 cell medium for 12 h incubation. […]

SMILES: COC(=C1C2CC3CC(C2)CC1C3)c1cc(O)c(I)cc1/C=C/C1=CC(=C(C#N)C#N)c2ccccc2S1 [IDPASu]
- HPF+IDPASu (+X-ray) versus HPF+IDPASu (−X-ray), ·OH ([1]; 250 μGy s^−1 or 100 mGy s^−1 for 20 s): not significant
- other ROS generation ([1]; X-ray irradiation): undetectable
- viability at 24 h, 100 µM [2]: 91%
